The values that follow come from ChEMBL document CHEMBL1129101 (Bioorg Med Chem Lett, 1996).

For one assay, the target named is Histamine H2 receptor (Rattus norvegicus, UniProt P25102). Put plainly: Antagonistic activity by inhibition histamine H2 receptor from rats. The assay is classed as functional. Conditions: read-out: pA2 (converted).
The target in assay [1] is T1, Cholecystokinin receptor type A (Mus musculus, UniProt O08786).
T1 sequence (O08786 whole entry): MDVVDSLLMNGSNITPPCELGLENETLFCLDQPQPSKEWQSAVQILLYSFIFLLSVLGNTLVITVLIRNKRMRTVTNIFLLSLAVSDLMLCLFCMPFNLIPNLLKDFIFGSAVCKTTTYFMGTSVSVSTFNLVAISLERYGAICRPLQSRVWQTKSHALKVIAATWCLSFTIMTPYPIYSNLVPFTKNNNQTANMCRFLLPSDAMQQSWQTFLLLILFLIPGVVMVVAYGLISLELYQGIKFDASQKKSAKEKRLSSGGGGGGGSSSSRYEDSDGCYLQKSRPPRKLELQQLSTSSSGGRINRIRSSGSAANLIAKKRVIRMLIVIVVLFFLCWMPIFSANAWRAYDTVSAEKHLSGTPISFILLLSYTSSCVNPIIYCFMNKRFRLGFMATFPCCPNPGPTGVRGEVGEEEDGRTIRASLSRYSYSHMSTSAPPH
Put plainly: Inhibitory activity against Cholecystokinin type A receptor.

The target in assay [2] is T2, Gastrin/cholecystokinin type B receptor (Mus musculus, UniProt P56481).
T2 sequence (P56481 whole entry): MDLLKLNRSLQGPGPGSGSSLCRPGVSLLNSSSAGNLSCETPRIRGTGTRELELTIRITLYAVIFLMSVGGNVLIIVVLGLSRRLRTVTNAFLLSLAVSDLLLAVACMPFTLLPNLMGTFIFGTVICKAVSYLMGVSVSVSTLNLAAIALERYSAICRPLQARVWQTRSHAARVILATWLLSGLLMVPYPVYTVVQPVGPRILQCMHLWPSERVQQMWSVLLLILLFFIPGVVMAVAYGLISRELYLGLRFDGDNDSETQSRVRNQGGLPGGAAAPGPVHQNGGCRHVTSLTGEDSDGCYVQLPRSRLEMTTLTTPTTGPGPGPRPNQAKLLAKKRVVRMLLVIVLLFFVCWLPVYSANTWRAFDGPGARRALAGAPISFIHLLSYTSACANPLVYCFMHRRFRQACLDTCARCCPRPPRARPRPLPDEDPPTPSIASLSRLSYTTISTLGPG
As to the kind of experiment: Inhibitory activity against Cholecystokinin type B receptor.

Assay [3] addresses Cholecystokinin receptor (Mus musculus) (UniProt O08786+P56481). Put plainly: Ratio of IC50(gastrin) to IC50(CCK-A). The assay is classed as protein assay.

Chain of Histamine H2 receptor (P25102 whole entry): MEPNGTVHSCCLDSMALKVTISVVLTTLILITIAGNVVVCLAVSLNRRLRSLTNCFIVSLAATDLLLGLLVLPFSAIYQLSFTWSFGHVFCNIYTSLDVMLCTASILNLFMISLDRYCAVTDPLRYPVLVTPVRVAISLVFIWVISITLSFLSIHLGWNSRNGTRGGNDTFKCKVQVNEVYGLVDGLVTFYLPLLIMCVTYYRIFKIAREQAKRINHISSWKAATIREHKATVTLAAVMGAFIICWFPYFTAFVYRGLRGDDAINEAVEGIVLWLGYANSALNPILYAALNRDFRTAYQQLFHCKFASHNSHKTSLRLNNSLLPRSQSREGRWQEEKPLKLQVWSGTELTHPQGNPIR

A word on the IC50: it is the concentration that gives 50% inhibition. Turning to `CN1C(=O)[C@H](NC(=O)Nc2cccc(COC(=O)NCCNC(=O)CC(=O)NCCCOc3cccc(CN4CCCCC4)c3)c2)N=C(c2ccccc2)c2ccccc21`, at Histamine H2 receptor, the Kb was 158 nM. For the same compound, the IC50 amounted to 8200 nM in assay [1] and 103 nM in assay [2]. In addition, in assay [3], the Ratio was determined as 432.

Turning to `Cc1cccc(NC(=O)N[C@@H]2N=C(c3ccccc3)c3ccccc3N(CCOC(=O)NCCCC(=O)NCCSCc3csc(N=C(N)N)n3)C2=O)c1`, the Kb on Histamine H2 receptor is 3160 nM. The IC50 in assay [1] was 4400 nM; in assay [2], 930 nM. Besides, the Ratio in assay [3] worked out at 289.

Regarding `Cc1cccc(NC(=O)N[C@@H]2N=C(c3ccccc3)c3ccccc3N(CCOC(=O)NCCCC(=O)NCCCOc3cccc(CN4CCCCC4)c3)C2=O)c1`, the Kb on Histamine H2 receptor is 1000 nM. In addition, the concentration for half-maximal inhibition (IC50) in assay [1] was 4600 nM; in assay [2] it was 4000 nM. The Ratio in assay [3] came out at 34.

As to `CN1C(=O)[C@H](NC(=O)Nc2cccc(CCOC(=O)NCCC(=O)NCCCOc3cccc(CN4CCCCC4)c3)c2)N=C(c2ccccc2)c2ccccc21`, the Kb on Histamine H2 receptor is 1260 nM. Further, the IC50 in assay [1] came out at 4200 nM; in assay [2], 94 nM. Moreover, in assay [3], the Ratio was determined as 156.

As for `CN1C(=O)[C@H](NC(=O)Nc2cccc(CCOC(=O)NCCCC(=O)NCCSCc3csc(N=C(N)N)n3)c2)N=C(c2ccccc2)c2ccccc21`, the Kb on Histamine H2 receptor was 794 nM. Besides, the IC50 in assay [1] came to 1300 nM; in assay [2], 300 nM. For the same compound, the Ratio in assay [3] worked out at 35.

With `CN1C(=O)[C@H](NC(=O)Nc2cccc(COC(=O)NCCC(=O)NCCCOc3cccc(CN4CCCCC4)c3)c2)N=C(c2ccccc2)c2ccccc21`, the Kb on Histamine H2 receptor was 316 nM. Besides, the results for the IC50 in assay [1] and in assay [2] were 310 nM and 160 nM, respectively. Also, the Ratio in assay [3] came out at 9.

In the case of `CN1C(=O)[C@H](NC(=O)Nc2cccc(COC(=O)NCC(=O)NCCCOc3cccc(CN4CCCCC4)c3)c2)N=C(c2ccccc2)c2ccccc21`, the Kb at Histamine H2 receptor was 794 nM. The IC50 came out at 6100 nM in assay [1] and 200 nM in assay [2]. In assay [3], the Ratio came out at 555.

Take `CC(C)(C)OC(=O)NCCCC(=O)NCCSCc1csc(N=C(N)N)n1`: the Kb on Histamine H2 receptor is 50.1 nM.

`CN1C(=O)[C@H](NC(=O)Nc2cccc(COC(=O)NCCN3CCN(C(=O)CNCCCOc4cccc(CN5CCCCC5)c4)CC3)c2)N=C(c2ccccc2)c2ccccc21`: the Kb at Histamine H2 receptor was 631 nM. Further, the IC50 turned out to be 740 nM in assay [1] and 45 nM in assay [2]. Also, the Ratio in assay [3] worked out at 106.

`Cc1cccc(NC(=O)N[C@@H]2N=C(c3cccc(OC(=O)NCCCC(=O)NCCCOc4cccc(CN5CCCCC5)c4)c3)c3ccccc3N(C)C2=O)c1`: the Kb at Histamine H2 receptor was 501 nM. In addition, the IC50 amounted to 3800 nM in assay [1] and 460 nM in assay [2]. Besides, the Ratio in assay [3] was determined as 17.

As for `CN1C(=O)[C@H](NC(=O)Nc2cccc(CCOC(=O)NCCCC(=O)NCCCOc3cccc(CN4CCCCC4)c3)c2)N=C(c2ccccc2)c2ccccc21`, the Kb on Histamine H2 receptor was 398 nM. Besides, the IC50 was determined as 5000 nM in assay [1] and 180 nM in assay [2]. The Ratio in assay [3] stood at 217.

With `CN1C(=O)[C@H](NC(=O)Nc2cccc(COC(=O)NCCCN3CCN(C(=O)CNCCCOc4cccc(CN5CCCCC5)c4)CC3)c2)N=C(c2ccccc2)c2ccccc21`, the Kb on Histamine H2 receptor was 316 nM. Also, the IC50 in assay [1] is 1650 nM; in assay [2], 400 nM. Besides, the Ratio in assay [3] is 183.

For the compound `CC(C)(C)OC(=O)NCCCC(=O)NCCCOc1cccc(CN2CCCCC2)c1`, the Kb at Histamine H2 receptor was 15.8 nM.

As to `CN1C(=O)[C@H](NC(=O)Nc2cccc(COC(=O)NCCCC(=O)NCCCOc3cccc(CN4CCCCC4)c3)c2)N=C(c2ccccc2)c2ccccc21`, on Histamine H2 receptor, the Kb is 251 nM. Besides, the IC50 in assay [1] was 3600 nM; in assay [2], 64 nM. For the same compound, the Ratio in assay [3] was 138.
